Results on one substance are retold here after patent US10272261B2, “Methods and compositions for treating ocular glaucoma” (Massachusetts Eye and Ear Infirmary, priority 2004, dated 2019).

“Also recorded” adds a separate entry of the source.

Common to all, as to assay type: in vivo, mouse
In one data set the test system is C57BL/6 normal mice. Kind of data set: IOP measurement (applanation tonometer) after transscleral ciliary body PDT in C57BL/6 normal mice. Here is the method:
All experiments were performed in accordance with the Association for Research in Vision and Ophthalmology Statement for the Use of Animals in Ophthalmic and Vision Research. C57BL/6 female mice aged 3 months (n=20) were used as the normal model. DBA/2J female mice aged 8 months (n=20) were used as the glaucoma mouse model. One eye of each animal was treated and the other eye served as a control (for both the normal and glaucoma models). Animals were housed in covered cages, were fed with a standard rodent diet ad libitum and were kept under constant 12 hour light-12 hour dark cycles. For general anesthesia, a mixture of ketamine (100 mg/kg) and xylazine (9 mg/kg) was administered intraperitoneally.
Verteporfin photosensitizer (Novartis Ophthalmics, Inc., Duluth, Ga.) was used in these experiments. The mice were systemically anesthetized prior to PDT, and the photosensitizer dye was administered to the animals by tail vain injections using a 30 G needle 5 minutes before laser irradiation. A dose of 2.0 or 4.0 mg/kg was used in C57BL/6 normal mice and of 1.0 mg/kg was used in DBA/2J mice. The laser irradiation to the ciliary body was applied transsclerally using a 600 μm optical fiber at a wavelength of light of 689 nm from a Diode Laser, with an irradiance of 1800 mW/cm^2 and a fluence of 100 J/cm^2 (Lumenis, Santa Clara, Calif.). […] In the C57BL/6 and DBA/2J mice, 16 and 8 spots, respectively, were irradiated to overlap with one another. In the eyes prepared for lectin labeling and terminal deoxynucleotide transferase-mediated nick end labeling (TUNEL) staining (a measure of apoptosis), PDT was performed in C57BL/6 mice to cover 180 degrees of the ciliary body at a 4.0 mg/kg verteporfin dose to compare the degree of staining between irradiated area and non-irradiated area. Retreatment was performed in C57BL/6 normal mice which had been treated with 2.0 mg/kg of verteporfin after the IOP measurement at post-PDT day 7 using the same light parameters.
The IOP was measured using a previously reported applanation tonometer (Ahamed et al. (2003) IOVS 44:ARVO E-Abstract 3336) (n=12 in DBA/2J mice, n=5 in C57BL/6 mice at each dose). The principle of applanation tonometry employs fiber-optic gauges which are designed around a Fabry-Perot interferometer (FPI) (FTI-10; FISO Technologies, Inc., Quebec, Canada). FPI consists of two mirrors facing each other, the space separating the mirrors being called the cavity length. Light reflected in the FPI is wavelength-modulated in exact accordance with the cavity length. FPI gauges convert pressure into cavity length variations which correlate with IOP.
IOP was measured under general anesthesia. Standardization of the plane of anesthesia was obtained as described previously (John et al. (1997) INVEST. OPHTHALMOL. VIS. SCI. 38:249-53). Anesthesia was administered to one mouse at a time. […] Then anesthesia was injected in the next mouse.
As soon as the mice were anesthetized sufficiently, they were placed on a surgical platform. When the pressure sensor applanated a central area of mouse cornea under a dissecting microscope, the IOP (psi) was measured by the device 10 times automatically. The resulting pressures were converted into mmHg units by multiplying the obtained mean value by […]. The LOP was measured every 2 days in the first week, then twice a week until 4 weeks after PDT, and then once a week until 8 weeks after PDT.

Another data set has as its system retinal ganglion cells. Kind of data set: Retinal ganglion cell (RGC) count in DBA/2J mice, fluorochrome retrograde labeling. The text has this:
Four weeks after the end of IOP follow up, RGC was counted in DBA/2J mice (11 months old) as described previously (Levkovitch-Verbin et al. (2000) INVEST. OPHTHALMOL. VIS. SCI. 41:4169-74, Danias et al. (2003) INVEST. OPHTHALMOL. VIS. SCI. 44:5151-62) with slight modification (n=4). After the mice were anesthetized, the skin over the cranium was incised, and the scalp was exposed. Holes approximately 2 mm in diameter were drilled in the skull 4 mm posterior to the bregma, 1 mm lateral to the midline on both sides of the midline raphe. The neurotracer dye fluorochrome (Fluoro-gold, Englewood, Colo.) (4% solution in saline) was directly applied (1 μL, at a rate of 0.5 μL/min) at a depth of 2 mm from the brain surface using a Hamilton syringe (Hamilton, Reno, Nev.). Skull openings then were sealed with antibiotic ointment. The overlying skin was sutured and antibiotic ointment applied externally.
Seven days after the application of fluorochrome, the eyes were enucleated. […] Cell counting was performed as previously described (Nakazawa et al. (2002) INVEST. OPHTHALMOL. VIS. SCI. 43:3319-26) under a fluorescence microscope (Leica Microsystems, Wetzlar, Germany) using a UV filter set. RGC densities were determined by counting the tracer-labeled RGCs in 12 distinct areas of 9.0×10^−2 mm^2 each (three areas per retinal quadrant at 1/6, 3/6 and 5/6 of the retinal radius). […]

The test system of the next data set is ciliary body. Kind of data set: Histology (light and electron microscopy) of ciliary body after PDT in DBA/2J mice. The settings on record: 1.0 mg/kg. Here is the method:
Eyes were enucleated at 6 hours (only DBA/2J), at 1 and 7 days after treatment, and at the end of IOP follow up (8 weeks after treatment)(n=2 in each group at each time point) and processed for light and transmission electron microscopic examination. The eyes were bisected behind the limbus, placed in modified Karnovsky's fixative at 4° C. overnight, and then transferred to 0.1 M cacodylate buffer at pH 7.4. Ciliary body specimens were observed by stereomicroscopy at 1 day after PDT for normal mice in the 4.0 mg/kg dose-treated group. Tissues were postfixed in aqueous 2% osmium tetroxide, stained en bloc with Uranyl Acetate, dehydrated in graded ethanols, and embedded in Epon. One-micrometer-thick sections were stained with 0.5% toluidine blue in borate buffer for light microscopy and examined using a photomicroscope (Leica Microsystems, Wetzlar, Germany). Thin sections were stained with aqueous uranyl acetate, and Sato's lead stain, and examined with a transmission electron microscope (CM 10; Phillips, Eindhoven, The Netherlands).

The subject of a further data set is DBA/2J mice. Kind of data set: Ocular complications of ciliary body PDT in DBA/2J mice (preliminary and changed parameters).

With verteporfin, the “reduction of mean IOP of treated eyes compared to the control eyes” value in the data set on C57BL/6 normal mice (2 mg/kg i.v., 360 degrees, 3 days after treatment, p<0.01) was determined as 41.3%; with C57BL/6 normal mice (2 mg/kg i.v., 689 nm, 100 J/cm^2, 360 degrees, 1 day after treatment, p<0.05), 35.1%; with C57BL/6 normal mice (4 mg/kg, 1 day after treatment) it was 42.1%; with C57BL/6 normal mice (4 mg/kg, 5 days after treatment), 47.3%. In the data set with C57BL/6 normal mice (2.0 mg/kg, 180° of the ciliary body irradiated), the “IOP reduction, preliminary experiments” value is recorded as “significant IOP reduction was not obtained”. Further, the “time by which mean IOP returned to the level of the fellow control eyes” value in the data set with C57BL/6 normal mice (2.0 mg/kg, after first treatment) is recorded as at most 7 days; in the data set with C57BL/6 normal mice (4 mg/kg, after treatment), at most 17 days. The “mean IOP of treated eyes” value is on record as 8.7±2.6 mmHg in the data set on C57BL/6 normal mice (2 mg/kg, retreatment at day 7, 10 days after first PDT); 9.5±2.1 mmHg in the data set with C57BL/6 normal mice (2 mg/kg, retreatment at day 7, 14 days after first PDT); 9.2±2.4 mmHg in the data set with C57BL/6 normal mice (4 mg/kg i.v., 360 degrees, 1 day after treatment, p<0.05). Also, the “time by which mean IOP returned to the level of the control eyes” value with C57BL/6 normal mice (2 mg/kg, with retreatment at day 7, days after PDT) is given as at most 17 days. Further, the “mean IOP in treated eyes versus fellow control eyes” value in the data set on C57BL/6 normal mice (2 mg/kg, with retreatment, 28 and 42 days after PDT) was “statistically lower than the level of fellow control eyes”. In addition, the “duration of significant reduction of mean IOP” value with C57BL/6 normal mice (4 mg/kg) was 14 days; in the data set with C57BL/6 normal mice (treated normal mice eyes (2.0 and 4.0 mg/kg)), 7 to 17 days. Also, in the data set on C57BL/6 normal mice (4 mg/kg, 5 days after treatment, p<0.01), the “mean IOP of treated eyes (minimum)” value is listed as 7.2±1.9 mmHg. Further, in the data set with retinal ganglion cells (1.0 mg/kg PDT at 8 months, counted at 11 months of age), the “number of retinal ganglion cells in the treated eyes” value is 3905±627 /mm^2. Further, in the data set on retinal ganglion cells (1.0 mg/kg PDT, 3 month period, p<0.05), the “retinal ganglion cell survival, treated versus control eyes” value was “significantly higher than control eyes; also recorded: loss of retinal ganglion cells over the 3 month period was significantly reduced”. The “ciliary body histological findings” value in the data set on ciliary body (8 weeks after PDT) was “ciliary body blood vessels were recanalized, and edema had disappeared”; in the data set on ciliary body (6 hours after PDT), “most ciliary body blood vessels in the treated eyes were thrombosed”; in the data set on ciliary body (1 day after PDT), “most ciliary body blood vessels were still thrombosed, and the ciliary epithelium and stroma were severely damaged and edematous”; in the data set with ciliary body (7 days after PDT), “Some of ciliary body blood vessels were still thrombosed”. Also, the ocular complications result in the data set on DBA/2J mice (2 mg/kg, irradiated in 360 degrees of the corneoscleral limbus (preliminary)) was “severe damage such as corneal edema, hyphema, and corneal neovascularization occurred with high frequency”; in the data set on DBA/2J mice (after change of parameters (1.0 mg/kg, 180 degrees)), “these complications were not seen”.
